Where two headings read alike, the source gives them in different places.

From US20160046618A1, “Cyclopropyl Fused Thiazin-2-Amine Compounds as Beta-Secretase Inhibitors and Methods of Use” (AMGEN INC., priority 2014, published 2016) come the findings set out here.

Assay [1] has as its system Aβ40 in conditioned medium of cells stably expressing Amyloid Precursor Protein (APP). Put plainly: In vitro BACE-1 cell-based assay (Aβ40 sandwich ELISA). The settings on record: read-out: IC50 IP (μM) BACE1 cell. Here is the method: In Vitro BACE-1 Cell-Based Assay
The cell-based assay measures inhibition or reduction of Aβ40 in conditioned medium of test compound treated cells expressing amyloid precursor protein. Cells stably expressing Amyloid Precursor Protein (APP) were plated at a density of 40K cells/well in 96 well plates (Costar). The cells were cultivated for 24 hours at 37° C. and 5% CO2 in DMEM supplemented with 10% FBS. The test compounds were then added to cells in 10-point dose response concentrations with the starting concentration being either 100 μM or 10 μM. The compounds were diluted from stock solutions in DMSO and the final DMSO concentration of the test compounds on cells was 0.1%. After 24 h of incubation with the test compounds the supernatant conditioned media was collected and the Aβ40 levels were determined using a sandwich ELISA. The IC50 of the compound was calculated from the percent of control or percent inhibition of Aβ40 as a function of the concentration of the test compound.
The sandwich ELISA to detect Aβ40 was performed in 96 well microtiter plates, which were pre-treated with goat anti-rabbit IgG (Pierce). The capture and detecting antibody pair that were used to detect Aβ40 from cell supernatants were affinity purified pAb40 (Biosource) and biotinylated 6E10 (Signet Labs Inc.), respectively. The optimal concentration for the pAb40 antibody was 3 μg/ml in Superblock/TBS (Pierce) that was supplemented with 0.05% Tween 20 (Sigma). […] Cellular supernatants were incubated with the capture antibody for 3 h at 4° C., followed by 3 wash steps in TBS-tween (0.05%). The detecting antibody incubation was for 2 h at 4° C., again followed by the wash steps as described previously. The final readout of the ELISA is Time-Resolved Fluorescence (counts per minute) using Delfia reagents Streptavidin-Europium and Enhancement solutions (Perkin Elmer) and the Victor 2 multilabel counter (Perkin Elmer).

The target in another assay is Recombinant Cat D (Homo sapiens (Human), UniProt P07339). The experiment in a line: In vitro enzymatic Cathepsin D (Cat D) FRET assay. Format: biochemical. The settings on record: read-out: IC50 IP (μM) CatD. Here is the method: In Vitro Enzymatic Cathepsin D (Cat D) FRET (Fluorescence Resonance Energy Transfer) Assay
Recombinant Cat D, sequence (P07339 65-412): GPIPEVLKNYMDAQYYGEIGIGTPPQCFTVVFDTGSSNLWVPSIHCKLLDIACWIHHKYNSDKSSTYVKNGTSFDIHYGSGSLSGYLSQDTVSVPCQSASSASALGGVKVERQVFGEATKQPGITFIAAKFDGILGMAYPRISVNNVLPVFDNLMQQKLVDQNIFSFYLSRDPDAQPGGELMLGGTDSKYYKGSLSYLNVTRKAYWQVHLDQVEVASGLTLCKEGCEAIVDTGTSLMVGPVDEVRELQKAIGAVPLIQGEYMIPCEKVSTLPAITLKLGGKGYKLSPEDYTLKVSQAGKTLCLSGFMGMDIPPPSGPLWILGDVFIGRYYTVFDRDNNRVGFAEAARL
Recombinant Cat D was expressed in CHO cells. The assay buffer for CathepsinD is 0.05 M citrate pH 3.5, 10% DMSO final, 5 mM CHAPS. […] The assays are effectively started by the addition of different FRET substrates (20 nM for Cat D) and the combination is incubated for one hour. The FRET assay is terminated with by addition of Tris buffer, which raises the pH to neutrality, and the fluorescence is determined. The FRET substrate is a peptide with commercially available fluorophore and quencher, on opposite sides of the BACE cleavage site. The Cat D substrate peptide sequence is based on sequence #1 of Table 1 from Gulnik et al. FEBS Letters v413 p 379-384 1997. Proteolytic cleavage of the FRET substrate releases quenching of fluorescence (Cat D excitation 500 nm and emission 580 nm).

In another assay the target is human recombinant BACE1 (Homo sapiens (Human), UniProt P56817). Put plainly: In vitro enzymatic BACE1 FRET assay. The settings on record: BACE1 FRET enzyme assay; read-out: IC50 IP (μM) BACE1 enzyme. Format: biochemical. Here is the method: These recombinant proteins were further purified using Ni-NTA affinity chromatography (Qiagen). […] This assay is effectively started by the addition of FRET substrate (50 nM) and the combination is incubated for one hour. The FRET assay is terminated by addition of Tris buffer, which raises the pH to neutrality, and the fluorescence is determined. The FRET substrate is a peptide with commercially available fluorophore and quencher, on opposite sides of the BACE cleavage site. Proteolytic cleavage of the FRET substrate releases quenching of fluorescence (excitation 488 nm and emission 590 nm).
human recombinant BACE1, sequence (P56817 46-501): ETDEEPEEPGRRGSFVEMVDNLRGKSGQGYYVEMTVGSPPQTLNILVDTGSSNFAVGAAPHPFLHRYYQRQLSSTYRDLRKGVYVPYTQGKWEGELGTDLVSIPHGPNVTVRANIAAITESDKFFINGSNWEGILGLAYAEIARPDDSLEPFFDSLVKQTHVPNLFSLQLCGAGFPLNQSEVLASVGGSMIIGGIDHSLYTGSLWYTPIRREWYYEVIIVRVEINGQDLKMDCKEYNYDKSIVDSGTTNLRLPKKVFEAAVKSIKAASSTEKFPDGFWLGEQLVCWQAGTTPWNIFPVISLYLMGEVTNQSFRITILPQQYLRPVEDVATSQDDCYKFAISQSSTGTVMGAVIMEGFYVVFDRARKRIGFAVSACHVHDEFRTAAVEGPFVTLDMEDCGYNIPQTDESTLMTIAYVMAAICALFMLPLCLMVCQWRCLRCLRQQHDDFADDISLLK

For the molecule `C#C[C@H](C)Oc1cnc(C(=O)Nc2cc(F)c(F)c([C@@]3(C)N=C(N)S[C@@]4(CF)C[C@H]43)c2)c(C)n1` [Example 616, N-(3-((1S,5S,6S)-3-amino-1-(fluoromethyl)-5-methyl-2-thia-4-azabicyclo[4.1.0]hept-3-en-5-yl)-4,5-difluorophenyl)-3-methyl-5-(((1S)-1-methyl-2-propyn-1-yl)oxy)-2-pyrazinecarboxamide], in assay [1], the concentration for half-maximal inhibition (IC50) was 0.0329 µM. For `C#C[C@H](C)Oc1cnc(C(=O)Nc2cc(F)c(F)c([C@@]3(C)N=C(N)S[C@@]4(COC)C[C@H]43)c2)c(C)n1` [Example 622, N-(3-((1S,5S,6S)-3-amino-1-(methoxymethyl)-5-methyl-2-thia-4-azabicyclo[4.1.0]hept-3-en-5-yl)-4,5-difluorophenyl)-3-methyl-5-(((1S)-1-methyl-2-propyn-1-yl)oxy)-2-pyrazinecarboxamide], the half-inhibitory concentration (IC50) in assay [1] amounted to 0.0438 µM.

Regarding `Cc1cc(Cl)cnc1C(=O)Nc1cc(F)c(F)c([C@@]2(C)N=C(N)S[C@H]3C[C@H]32)c1` [Example 8, N-(3-((1S,5S,6S)-3-amino-5-methyl-2-thia-4-azabicyclo[4.1.0]hept-3-en-5-yl)-4,5-difluorophenyl)-5-chloro-3-methyl-2-pyridinecarboxamide], the figures for the IC50 (in assay [1] (BACE1 cell-based assay); at Recombinant Cat D (Cathepsin D FRET enzyme assay); at human recombinant BACE1) were 0.0563 µM, 418 µM and 0.00528 µM, respectively. Regarding `C[C@]1(c2cc(NC(=O)c3ccc(Cl)cn3)cc(F)c2F)N=C(N)S[C@@]2(C(=O)O)C[C@H]21` [Example 899, Lithium (1S,5S,6S)-3-amino-5-(5-(5-chloropicolinamido)-2,3-difluorophenyl)-5-methyl-2-thia-4-azabicyclo[4.1.0]hept-3-ene-1-carboxylate], in assay [1], the IC50 is 2.45 µM.

As for `COc1cnc(C(=O)Nc2cc(F)c(F)c([C@@]3(CF)N=C(N)S[C@H]4C[C@H]43)c2)cn1` [Example 16, N-(3-((1S,5S,6S)-3-amino-5-(fluoromethyl)-2-thia-4-azabicyclo[4.1.0]hept-3-en-5-yl)-4,5-difluorophenyl)-5-methoxy-2-pyrazinecarboxamide], the figures for the IC50 (in assay [1] (BACE1 cell-based assay); at Recombinant Cat D (Cathepsin D FRET enzyme assay); at human recombinant BACE1) were 0.00908 µM, 875 µM and 0.0145 µM, respectively. As for `NC1=N[C@](CF)(c2cc(Nc3ncnc4cc(Cl)cnc34)cc(F)c2F)[C@@H]2C[C@@H]2S1` [Example 22, (1S,5S,6S)-5-(5-((7-Chloropyrido[3,2-d]pyrimidin-4-yl)amino)-2,3-difluorophenyl)-5-(fluoromethyl)-2-thia-4-azabicyclo[4.1.0]hept-3-en-3-amine], the IC50 in assay [1] (BACE1 cell-based assay) worked out at 0.0533 µM; at Recombinant Cat D (Cathepsin D FRET enzyme assay), 331 µM; on human recombinant BACE1, 0.0149 µM.

For the molecule `NC1=N[C@](CF)(c2cc(NC(=O)c3ccc(Cl)cn3)cc(F)c2F)[C@@H]2C[C@@H]2S1` [Example 18, N-(3-((1S,5S,6S)-3-amino-5-(fluoromethyl)-2-thia-4-azabicyclo[4.1.0]hept-3-en-5-yl)-4,5-difluorophenyl)-5-chloropicolinamide], the half-inhibitory concentration (IC50) in assay [1] (BACE1 cell-based assay) turned out to be 0.0169 µM; at Recombinant Cat D (Cathepsin D FRET enzyme assay), 34.3 µM; at human recombinant BACE1 it was 0.0172 µM.

With `Cc1cc(OC(F)F)cnc1C(=O)Nc1cc(F)c(F)c([C@@]2(C)N=C(N)S[C@H]3C[C@H]32)c1` [Example 15, N-(3-((1S,5S,6S)-3-amino-5-methyl-2-thia-4-azabicyclo[4.1.0]hept-3-en-5-yl)-4,5-difluorophenyl)-5-(difluoromethoxy)-3-methyl-2-pyridinecarboxamide], the results for the IC50 (in assay [1] (BACE1 cell-based assay); on Recombinant Cat D (Cathepsin D FRET enzyme assay); on human recombinant BACE1) were 0.00994 µM, 506 µM and 0.0124 µM, respectively.

For the molecule `CCOc1cnc(C(=O)Nc2cc(F)c(F)c([C@@]3(C)N=C(N)S[C@@]4(COC)C[C@H]43)c2)cn1` [Example 1038, N-(3-((1S,5S,6S)-3-amino-1-(methoxymethyl)-5-methyl-2-thia-4-azabicyclo[4.1.0]hept-3-en-5-yl)-4,5-difluorophenyl)-5-ethoxy-2-pyrazinecarboxamide], the IC50 at Recombinant Cat D was determined as 1300 µM. In the case of `CCOC(=O)[C@]12C[C@H]1[C@@](C)(c1cc(NC(=O)c3ccc(Cl)cn3)cc(F)c1F)N=C(N)S2` [Example 9, (1S,5S,6S)-ethyl 3-amino-5-(5-(5-chloropicolinamido)-2,3-difluorophenyl)-5-methyl-2-thia-4-azabicyclo[4.1.0]hept-3-ene-1-carboxylate], the IC50 was 0.0232 µM in assay [1] (BACE1 cell-based assay), 366 µM on Recombinant Cat D (Cathepsin D FRET enzyme assay) and 0.00679 µM on human recombinant BACE1. On to `C=CC(C)Oc1cnc(C(=O)Nc2ccc(F)c([C@@]3(C)N=C(N)S[C@@]4(COC)C[C@H]43)c2)cn1` (stereo partly drawn) [Example 1063, N-(3-((1S,5S,6S)-3-amino-1-(methoxymethyl)-5-methyl-2-thia-4-azabicyclo[4.1.0]hept-3-en-5-yl)-4-fluorophenyl)-5-(but-3-en-2-yloxy)pyrazine-2-carboxamide], for which the IC50 in assay [1] was 0.1 µM.

With `[2H]C([2H])(C#C)Oc1cnc(C(=O)Nc2cc(F)c(F)c([C@@]3(C)N=C(N)S[C@@]4(COC)C[C@H]43)c2)cn1` [Example 840], the IC50 in assay [1] came out at 0.0006 µM. As for `NC1=N[C@](CF)(c2cc(Nc3nccc4nc(OCc5ncco5)cnc34)ccc2F)[C@@H]2C[C@]2(c2c[nH]nn2)S1` [Example 957, N-(3-((1S,5S,6S)-3-amino-5-(fluoromethyl)-1-(1H-1,2,3-triazol-4-yl)-2-thia-4-azabicyclo[4.1.0]hept-3-en-5-yl)-4-fluorophenyl)-2-(1,3-oxazol-2-ylmethoxy)pyrido[3,4-b]pyrazin-5-amine], the IC50 in assay [1] amounted to 0.00616 µM. Regarding `Cc1cc(C#N)cnc1C(=O)Nc1cc(F)c(F)c([C@@]2(C)N=C(N)S[C@H]3C[C@H]32)c1` [Example 19, N-(3-((1S,5S,6S)-3-amino-5-methyl-2-thia-4-azabicyclo[4.1.0]hept-3-en-5-yl)-4,5-difluorophenyl)-5-cyano-3-methyl-2-pyridinecarboxamide], the IC50 in assay [1] (BACE1 cell-based assay) turned out to be 0.00431 µM; at Recombinant Cat D (Cathepsin D FRET enzyme assay) it was 669 µM; on human recombinant BACE1, 0.00545 µM. Regarding `C[C@]1(c2cc(NC(=O)c3ccc(C#N)cn3)cc(F)c2F)N=C(N)S[C@H]2C[C@H]21` [Example 14, N-(3-((1S,5S,6S)-3-amino-5-methyl-2-thia-4-azabicyclo[4.1.0]hept-3-en-5-yl)-4,5-difluorophenyl)-5-cyano-2-pyridinecarboxamide], the values for the IC50 (in assay [1] (BACE1 cell-based assay); at Recombinant Cat D (Cathepsin D FRET enzyme assay); on human recombinant BACE1) were 0.00569 µM, 797 µM and 0.0109 µM, respectively. Regarding `C#C[C@H](C)Oc1cnc(C(=O)Nc2ccc(F)c([C@@]3(C)N=C(N)S[C@@]4(C(F)F)C[C@@H]34)c2)c(C)c1` [Example 648, N-(3-((1S,5S,6S)-3-amino-1-(difluoromethyl)-5-methyl-2-thia-4-azabicyclo[4.1.0]hept-3-en-5-yl)-4-fluorophenyl)-3-methyl-5-(((1S)-1-methyl-2-propyn-1-yl)oxy)-2-pyridinecarboxamide], the IC50 in assay [1] was found to be 0.222 µM.

Turning to `C#CCOc1cnc(C(=O)Nc2ccc(F)c([C@@]3(C)N=C(N)S[C@@]4(CF)C[C@H]43)c2)cn1` [Example 822, N-(3-((1S,5S,6S)-3-amino-1-(fluoromethyl)-5-methyl-2-thia-4-azabicyclo[4.1.0]hept-3-en-5-yl)-4-fluorophenyl)-5-(2-propyn-1-yloxy)-2-pyrazinecarboxamide], the concentration for half-maximal inhibition (IC50) in assay [1] is 0.000378 µM.

By IC50 is commonly meant the midpoint of a concentration-inhibition curve.
